Data as given in PubChem BioAssay AID1963446 (Molecular Pharmacology Branch, DTP, NCI, 2024).
pIC50: −log10 of the molar value. Several values for one entry are separate records, joined by “and”; a condition that tells them apart may be missing. Equal entries are not always repeated.

Test system: 993429-296-R-J1-PDC complex spheroid growth, percent test/control
Experiment: Anticancer human tumor 993429-296-R-J1-PDC patient-derived uterine sarcoma cell line growth inhibition [Asc]
Details: for viability, T/C: stronger effect = lower value; active means viability on the fitted dose curve at most 10% of control; inactive means the rest
How it was run: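 Complex spheroids combining tumor cells with HUVEC endothelial cells and human MSCs, at 37 degrees C, 5% CO2; agents tested alone or combined, half-log dilutions from at or near clinical Cmax, or 10 microM if Cmax unknown.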

[1] = curve of first compound, second compound 0.1 µM
[2] = curve of first compound, second compound 0.316 µM
[3] = curve of first compound, second compound 1 µM
[4] = curve of first compound, second compound 3.16 µM
[5] = curve of first compound, second compound 10 µM
[6] = second compound 0.1 µM, first compound 0.0316 µM
[7] = second compound 0.1 µM, first compound 0.1 µM
[8] = second compound 0.316 µM, first compound 0.0316 µM
[9] = second compound 0.316 µM, first compound 0.1 µM
[10] = second compound 1 µM, first compound 0.0316 µM
[11] = second compound 1 µM, first compound 0.1 µM
[12] = second compound 3.16 µM, first compound 0.0316 µM
[13] = second compound 3.16 µM, first compound 0.1 µM
[14] = second compound 10 µM, first compound 0.0316 µM
[15] = second compound 10 µM, first compound 0.1 µM
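Further: spheroids exposed to compounds for seven days.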

C#Cc1c(F)ccc2cc(O)cc(-c3ncc4c(N5CC6CCC(C5)N6)nc(OCC56CCCN5CC(F)C6)nc4c3F)c12 (configuration not stated) + Cc1c(S(C)(=O)=O)c(-c2cc(F)cc(N3CCN(c4ccc(NS(=O)(=O)c5ccc(NC(CCN6CCC(C(=O)OCCCP(=O)(O)O)CC6)CSc6ccccc6)c(S(=O)(=O)C(F)(F)F)c5)cc4)CC3)c2)c(-c2ccc(Cl)cc2)n1C(C)C
active: viability, T/C (second compound 0.1 µM, first compound 10 µM) 2.44% | viability, T/C (second compound 0.316 µM, first compound 10 µM) 1.38% | viability, T/C (second compound 1 µM, first compound 10 µM) 0.37% | viability, T/C (second compound 3.16 µM, first compound 10 µM) 0.32% | viability, T/C (second compound 10 µM, first compound 10 µM) 2.69%
5.85: pIC50 [2]
5.84: pIC50 [3]
5.56: pIC50 [5]
> 7.50: pIC50 [4]
inactive: viability, T/C [6] 70.7% | viability, T/C [7] 69.9% | viability, T/C (second compound 0.1 µM, first compound 0.316 µM) 64.8% | viability, T/C (second compound 0.1 µM, first compound 1 µM) 67.3% | viability, T/C (second compound 0.1 µM, first compound 3.16 µM) 48.8% | viability, T/C [8] 55.4% | viability, T/C [9] 73.8% | viability, T/C (second compound 0.316 µM, first compound 0.316 µM) 66.5% | viability, T/C (second compound 0.316 µM, first compound 1 µM) 53.1% | viability, T/C (second compound 0.316 µM, first compound 3.16 µM) 36% | viability, T/C [10] 60.1% | viability, T/C [11] 55.9% | viability, T/C (second compound 1 µM, first compound 0.316 µM) 50.7% | viability, T/C (second compound 1 µM, first compound 1 µM) 67.3% | viability, T/C (second compound 1 µM, first compound 3.16 µM) 32% | viability, T/C [12] 53.6% | viability, T/C [13] 45.6% | viability, T/C (second compound 3.16 µM, first compound 0.316 µM) 45.6% | viability, T/C (second compound 3.16 µM, first compound 1 µM) 36% | viability, T/C (second compound 3.16 µM, first compound 3.16 µM) 33% | viability, T/C [14] 94.9% | viability, T/C [15] 98.8% | viability, T/C (second compound 10 µM, first compound 0.316 µM) 88.1% | viability, T/C (second compound 10 µM, first compound 1 µM) 74.5% | viability, T/C (second compound 10 µM, first compound 3.16 µM) 46.9%
5.53: pIC50 [1]

Cn1ncnc1[C@H]1c2n[nH]c(=O)c3cc(F)cc(c23)N[C@@H]1c1ccc(F)cc1 + Cc1c(S(C)(=O)=O)c(-c2cc(F)cc(N3CCN(c4ccc(NS(=O)(=O)c5ccc(NC(CCN6CCC(C(=O)OCCCP(=O)(O)O)CC6)CSc6ccccc6)c(S(=O)(=O)C(F)(F)F)c5)cc4)CC3)c2)c(-c2ccc(Cl)cc2)n1C(C)C
8.00: pIC50 [5]
9.00: pIC50 [4]
8.42: pIC50 [3]
inactive: viability, T/C (second compound 0.1 µM, first compound 0.000316 µM) 66.9% | viability, T/C (second compound 0.1 µM, first compound 0.001 µM) 70.1% | viability, T/C (second compound 0.1 µM, first compound 0.00316 µM) 64.5% | viability, T/C (second compound 0.1 µM, first compound 0.01 µM) 46.7% | viability, T/C [6] 34.1% | viability, T/C [7] 18.5% | viability, T/C (second compound 0.316 µM, first compound 0.000316 µM) 62.6% | viability, T/C (second compound 0.316 µM, first compound 0.001 µM) 73.7% | viability, T/C (second compound 0.316 µM, first compound 0.00316 µM) 50.3% | viability, T/C (second compound 0.316 µM, first compound 0.01 µM) 37.3% | viability, T/C [8] 33.3% | viability, T/C [9] 14.2% | viability, T/C (second compound 1 µM, first compound 0.000316 µM) 68.8% | viability, T/C (second compound 1 µM, first compound 0.001 µM) 68.5% | viability, T/C (second compound 1 µM, first compound 0.00316 µM) 50.1% | viability, T/C (second compound 1 µM, first compound 0.01 µM) 35.8% | viability, T/C [10] 22.7% | viability, T/C [11] 10.6% | viability, T/C (second compound 3.16 µM, first compound 0.000316 µM) 52.8% | viability, T/C (second compound 3.16 µM, first compound 0.001 µM) 48.5% | viability, T/C (second compound 3.16 µM, first compound 0.00316 µM) 44.3% | viability, T/C (second compound 3.16 µM, first compound 0.01 µM) 28.9% | viability, T/C [12] 9.8% | viability, T/C (second compound 10 µM, first compound 0.000316 µM) 103% | viability, T/C (second compound 10 µM, first compound 0.001 µM) 81% | viability, T/C (second compound 10 µM, first compound 0.00316 µM) 93.3% | viability, T/C (second compound 10 µM, first compound 0.01 µM) 50.1% | viability, T/C [14] 12.4% | viability, T/C [15] 9.31%
8.01: pIC50 [1]
8.33: pIC50 [2]
active: viability, T/C [13] 10.8%

O=C(c1cc(Cc2n[nH]c(=O)c3ccccc23)ccc1F)N1CCN(C(=O)C2CC2)CC1
inactive: viability, T/C (compound 0.0316 µM) 83.4% and 99.6% and 106% | viability, T/C (compound 0.1 µM) 84.4% and 88.2% and 103% | viability, T/C (compound 0.316 µM) 90.3% and 89.3% and 93% | viability, T/C (compound 1 µM) 72.8% and 82.6% and 105% | viability, T/C (compound 3.16 µM) 67.7% and 68.7% and 83.8% | viability, T/C (compound 10 µM) 25.3% and 43% and 44.8%
5.31 and 5.13 and 5.07: pIC50 (curve of compound)
